Measurements reported in US20060122240A1, “Benzotriazoles and methods of prophylaxis or treatment of metabolic-related disorders thereof” (Arena Pharmaceuticals, Inc., priority 2002, published 2006).
Entries after “also recorded” stand apart in the source; their conditions may differ. Like-named read-outs stand apart in the source and are kept apart here.

How the values were obtained:
Assay type in all cases: cell-based
hRUP25 = molecular target: T1, hRUP25 (Homo sapiens, UniProt Q8TDS4); test: Adenylyl cyclase assay in CHO cells expressing hRUP25; details: FIG. 1 screening data
T1 construct: expressed in transfected cells; host or cells: CHO cells
T1 sequence (Q8TDS4 whole entry): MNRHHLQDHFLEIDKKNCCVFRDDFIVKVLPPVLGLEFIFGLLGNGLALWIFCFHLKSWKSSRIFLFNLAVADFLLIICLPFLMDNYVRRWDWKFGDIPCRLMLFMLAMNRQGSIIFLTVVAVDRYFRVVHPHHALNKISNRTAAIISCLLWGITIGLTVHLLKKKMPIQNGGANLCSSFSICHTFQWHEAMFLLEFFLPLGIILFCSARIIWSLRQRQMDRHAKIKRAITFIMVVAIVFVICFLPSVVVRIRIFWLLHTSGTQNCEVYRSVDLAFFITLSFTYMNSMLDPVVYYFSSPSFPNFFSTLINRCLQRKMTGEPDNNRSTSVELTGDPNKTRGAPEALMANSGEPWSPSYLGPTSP
Excerpt: FIG. 1. FIG. 1 presents screening data via adenylyl cyclase assay for hRUP38. […] 1-Isopropyl-1H-benzotriazole-5-carboxylic acid has no effect on CHO cells expressing hRUP25.
A modified Flash Plate™ Adenylyl Cyclase kit (New England Nuclear; Cat. No. SMP004A) was utilized for direct identification of candidate compounds as agonists to hRUP38 (Seq. Id. Nos. 1 & 2) or hRUP25 (Seq. Id. Nos. 3 & 4) in accordance with the following protocol: […]

primary human adipocytes = test: Inhibition of isoproterenol stimulated lipolysis in human subcutaneous adipocytes; details: isoproterenol 100 nM, adipocyte primary cultures from human subcutaneous fat, FIG. 2
hRUP38 = molecular target: T2, hRUP38 (Homo sapiens, UniProt P49019); test: Adenylyl cyclase / cAMP Whole Cell assay in CHO cells stably transfected with hRUP38
T2 construct: expressed in transfected cells
T2 sequence (P49019 whole entry K94N/T173P/F198L/H253R/I317M/I346M): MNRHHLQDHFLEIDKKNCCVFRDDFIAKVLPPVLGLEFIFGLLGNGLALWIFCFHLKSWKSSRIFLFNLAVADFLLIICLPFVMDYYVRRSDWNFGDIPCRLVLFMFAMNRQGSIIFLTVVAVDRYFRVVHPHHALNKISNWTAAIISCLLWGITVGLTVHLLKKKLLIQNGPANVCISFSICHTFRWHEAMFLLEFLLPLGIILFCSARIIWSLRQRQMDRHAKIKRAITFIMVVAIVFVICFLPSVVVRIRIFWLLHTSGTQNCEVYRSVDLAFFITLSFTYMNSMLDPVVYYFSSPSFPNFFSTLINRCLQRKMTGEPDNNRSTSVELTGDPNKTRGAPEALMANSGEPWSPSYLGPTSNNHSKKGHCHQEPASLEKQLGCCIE
Procedure: A modified Flash Plate™ Adenylyl Cyclase kit (New England Nuclear; Cat. No. SMP004A) was utilized for direct identification of candidate compounds as agonists to hRUP38 (Seq. Id. Nos. 1 & 2) or hRUP25 (Seq. Id. Nos. 3 & 4) in accordance with the following protocol:
CHO cells stably transfected with hRUP38 were harvested from flasks via non-enzymatic means. The cells were washed in PBS and resuspended in the manufacturer's Assay Buffer. […] To these wells, 100,000 cells in 50 μl of Assay Buffer were added and the mixture was then incubated for 30 minutes at room temperature, with gentle shaking. Following the incubation, 100 μl of Detection Buffer was added to each well, followed by incubation for 2-24 hours. Plates were counted in a Wallac MicroBeta™ plate reader using “Prot. #31” (as per manufacturer instructions).

effect on CHO cells expressing hRUP25 (hRUP25): no effect
EC50 (hRUP38; average of seven (7) trials, read-out: hRUP38 (EC50) cAMP Whole Cell): 388 nM
EC50 (hRUP38; inhibition of forskolin stimulated cAMP, hRUP38-expressing CHO cells, read-out: EC50, adenylyl cyclase assay for hRUP38 (FIG. 1)): 166 nM
Compound: CC(C)n1nnc2cc(C(=O)O)ccc21 [Example 6.1, 1-Isopropyl-1H-benzotriazole-5-carboxylic acid]
inhibition of isoproterenol stimulated lipolysis (primary human adipocytes): dose-dependent manner comparable to that of nicotinic acid; also recorded: dose-dependant manner comparable to that of nicotinic acid
